According to ChEMBL document CHEMBL3046257, “Response of sweet maize (Zea mays L.) hybrids to halosulfuron” (Crop Prot, 2008):

Tests used:
Zea mays [1] = assay: Toxicity in Zea mays (maize) assessed as plant height relative to untreated control; format: organism-based; details: in vivo
Zea mays [2] = assay: Toxicity in Zea mays (maize) assessed as reduction in cob size relative to untreated control; format: organism-based; parameters: scale not given: the % may be the effect or the level left; details: in vivo

Compound	Activity (Zea mays [1])	Activity (Zea mays [2])
COc1cc(OC)nc(NC(=O)NS(=O)(=O)c2ncccc2C(=O)N(C)C)n1 [NICOSULFURON]	100%	–
COC(=O)c1sccc1S(=O)(=O)NC(=O)Nc1nc(C)nc(OC)n1 [THIFENSULFURON-METHYL]	–	9%
O=C(O)c1nc(Cl)ccc1Cl [CLOPYRALID]	–	67%
COc1nc(C)nc(NC(=O)NS(=O)(=O)c2ccccc2CCC(F)(F)F)n1 [PROSULFURON]	100%	–
CC(C)N1C(=O)c2ccccc2NS1(=O)=O [BENTAZON]	100%	–
